From patent publication US12036189B2, “Method of treating major depressive disorder” (priority 2018, dated 2024)

Assays:
[1] = tested on: animal models of depression; details: cited from earlier work
[2] = tested on: human peripheral blood lymphocytes (HPBL)
Experimental: The clastogenic potential of esketamine was evaluated in the in vitro mammalian chromosome aberration test using human peripheral blood lymphocytes (HPBL) in both the absence and presence of an induced metabolic activation system (the 9000 g supernatant [S9] microsomal fraction of liver homogenate from rats exposed to Aroclor-1254).
The study was conducted in 2 phases, with a preliminary toxicity test used to determine the appropriate concentrations for the definitive chromosomal aberration assay. Water was used as a negative (vehicle) control. Toxicity (defined as ≥45% reduction in MI relative to the vehicle control) was evaluated at 9 concentrations, ranging from 0.0238 to 238 μg/ml, after exposure of HPBL to esketamine for 20 hours in the absence of S9 activation, or for 4 hours, either in the presence or absence of S9 activation, followed by a 16-hour recovery period.
The definitive chromosome aberration assay evaluated HPBL cells after exposure to esketamine for 20 hours in the absence of S9 activation, or for 4 hours, either in the presence of absence of S9 activation, followed by a 16-hour recovery. Positive controls for chromosomal aberrations in non-activated and S9-activated evaluations, respectively, consisted of mitomycin C (MMC, 0.6 and 0.3 μg/mL for the 4- and 20-hour exposures, respectively) and cyclophosphamide (CP, 2.5, 5, and 7.5 μg/mL). […] Initially, the doses selected for evaluation of chromosomal aberrations were 60, 120, and 238 μg/mL for the non-activated 4- and 20-hour treatment conditions; and 30, 60, and 200 μg/mL for the S9-activated 4-hour treatment condition.

[3] = tested on: human peripheral blood lymphocytes (HPBL); remark: listed apart in the source
Experimental: The study was conducted in 2 phases, with a preliminary toxicity test used to determine the appropriate concentrations for the definitive chromosomal aberration assay. Water was used as a negative (vehicle) control. In both phases, the cells were treated for 3 and 21 hours in the absence of S9 mix and for 3 hours in the presence of S9 mix. The mitotic index was assessed for all cultures to determine cytotoxicity. Ten concentrations, ranging from 2.62 to 260.16 μg/mL, were evaluated in the preliminary toxicity test. […] S-Norketamine concentrations of 93.66, 156.10 or 260.16 μg/mL were selected for metaphase analysis.

[4] = Repeated dose 28 day study, toxicokinetics; details: male rats, Day 28
Experimental: The objective of the study was to assess the potential toxicity, neurobehavioral effects, and toxicokinetics (TK) of esketamine when administered orally, via gavage, to Sprague Dawley rats for 28 days and to evaluate recovery during a 14-day drug-free period. Fifty male and 50 female rats were randomized into 4 groups (15/sex/Groups 1 and 4; 10/sex/Groups 2 and 3). Esketamine was administered via oral gavage once daily for 28 consecutive days to males at 0 (vehicle control), 6, 10 or 30 mg/kg/day and females at 0 (vehicle control), 2, 10 or 20 mg/kg/day in a dose volume of 10 mL/kg. Animals were observed until euthanized and necropsied on Day 29 (10/sex/group) or 43 (5/sex from Groups 1 and 4). Toxicity was evaluated based on mortality, clinical observations, body weights, food consumption, ophthalmology, motor activity, functional observational battery, clinical pathology (clinical chemistry, hematology, coagulation and urinalysis), organ weights, anatomic (macroscopic or microscopic) pathology. Toxicokinetic animals (3/sex/Group 1; 6/sex/Groups 2, 3, and 4) were similarly dosed and bled on Day 1 and during Week 4 for toxicokinetic analysis.

liver of Crl:CD(SD) rats = assay: In vivo single cell gel electrophoresis (comet) assay, DNA strand breaks in the liver
[5] = Single dose, randomized, open-label crossover study, pharmacokinetics; details: esketamine hydrochloride, 15 subjects
Source text: A randomized, open-label 4-way crossover study in 16 healthy male and female subjects was held wherein said subjects were placed in a randomly assigned order and administered esketamine. Each subject was assigned to 1 of 4 treatment sequences according to a randomization code such that 4 subjects were assigned to each treatment sequence. There was a wash-out period of at least 7 days between dosing periods with dosing consisting of either oral or intravenous esketamine hydrochloride. The study consisted of an eligibility screening period of 28 days, 4 study periods involving administration of a single dose of esketamine hydrochloride followed by safety assessments with blood sampling for PK purposes up to 72 hours after study drug administration, discharge at 72 hours after study drug administration and a follow-up visit 7-14 days after the last PK blood sample was taken on Day 4.

## CN[C@@]1(c2ccccc2Cl)CCCCC1=O [(R)-ketamine, (2R)-2-(2-Chlorophenyl)-2-(methylamino) cyclohexanone]
[1]
  psychotomimetic side effects and abuse liability: without psychotomimetic side effects and abuse liability

## O=P1(N(CCCl)CCCl)NCCCO1 (stereo not shown) [CP, cyclophosphamide]
[2]; S9-activated system, positive control 2.5, 5 and 7.5 μg/mL
  structural aberrations, % of the cells: 10.7%

## N[C@]1(c2ccccc2Cl)CCCCC1=O [S-norketamine]
[3]
  Toxicity (mitotic index): not observed at any dose
  induction of structural and numerical chromosomal aberrations: negative

## CN[C@]1(c2ccccc2Cl)CCCCC1=O [esketamine, (2S)-2-(2-Chlorophenyl)-2-(methylamino) cyclohexanone]
[4]; 10 mg/kg oral gavage
  t1/2: 0.6 h
[4]; 30 mg/kg oral gavage
  AUC0-t: 575 ng·h/mL
Liver of Crl:CD(SD) rats; female rats, 25 and 50 mg/kg/day oral gavage, three doses, p<0.001
  median % TI in the liver vs vehicle control: Statistically significant increases
Liver of Crl:CD(SD) rats; male and female rats, oral gavage
  DNA strand breaks in the liver (study conclusion): evidence of causing an increase in DNA strand breaks
Liver of Crl:CD(SD) rats; male rats, 75 mg/kg/day oral gavage, three doses, p<0.001
  median % tail intensity (TI) in the liver vs vehicle control: Statistically significant increases
Liver of Crl:CD(SD) rats; rat, in vivo
  macroscopic examination after 3 doses: no test item related lesions
[2]
  Toxicity (≥45% reduction in MI relative to the vehicle control): not observed at any dose
[2]; human
  doses at which cytotoxicity (≥45% reduction in mitotic index) was observed: ≥ 200 µg/mL
[5]; 0.3 mg/kg iv
  AUC0-inf, Geometric mean: 257.14 ng·h/mL
  AUC0-t, Geometric mean: 249.15 ng·h/mL
  Cmax, Geometric mean: 94.50 ng/mL
  t1/2, Geometric mean: 10.16 h
  tmax, Median: 1.00 h
[5]; 20 mg oral solution
  AUC0-inf, Geometric mean: 25.82 ng·h/mL
  AUC0-t, Geometric mean: 23.44 ng·h/mL
  Cmax, Geometric mean: 16.48 ng/mL
  t1/2, Geometric mean: 2.91 h
  tmax, Median: 0.50 h
[5]; 20 mg oral tablet
  AUC0-inf, Geometric mean: 22.46 ng·h/mL
  AUC0-t, Geometric mean: 20.05 ng·h/mL
  tmax, Median: 0.75 h
[5]; 20 mg oral
  t1/2, Geometric mean: 2.84 h
[5]; 100 mg oral tablet
  AUC0-inf, Geometric mean: 180.84 ng·h/mL
  AUC0-t, Geometric mean: 172.71 ng·h/mL
  Cmax, Geometric mean: 65.34 ng/mL
  tmax, Median: 0.75 h
[5]; 100 mg oral
  t1/2, Geometric mean: 7.66 h
